Reference: patent US7968508B2, “Benzophenone or benzoic acid anilide derivatives containing carboxyl groups as enzyme stabilizers” (priority 2007, dated 2011)

Biological target: Bacillus lentus alkaline protease F49 (Lederbergia lenta, UniProt P29599, A188P/L211D/S3T/V193M/V199I)
Test: Residual protease activity in the presence of an inhibitor
Type: biochemical
Details: compound 10 mM; substrate AAPFpNA; pH 8.6, 25° C.
Method: To verify that the compounds listed below have a protease activity-inhibiting effect, the residual proteolytic activity of the Bacillus lentus alkaline protease F49 (according to WO 95/23221 A1) was determined in the presence of these compounds.
The substrate succinyl-alanine-alanine-proline-phenylalanine-para-nitroanilide (AAPFpNA; Bachem L-1400) and 5×10^−9 and/or 1×10^−8 M of the protease were placed in 100 mM Tris buffer. The compounds to be tested as listed in Table 1 were then added in a final concentration of 10 mM. Each was dissolved in anhydrous DMSO, correcting for the effect of DMSO on the enzymatic activity by means of a corresponding reference with the same amount of DMSO but without the respective compound. The batches were incubated for 5 minutes at pH 8.6 and 25° C., where 1 U corresponds to 1 μmol substrate cleaved per minute.

Bacillus lentus alkaline protease F49, sequence (P29599 other isoform, or with tags, fused parts or gaps A188P/V193M/V199I/L211D): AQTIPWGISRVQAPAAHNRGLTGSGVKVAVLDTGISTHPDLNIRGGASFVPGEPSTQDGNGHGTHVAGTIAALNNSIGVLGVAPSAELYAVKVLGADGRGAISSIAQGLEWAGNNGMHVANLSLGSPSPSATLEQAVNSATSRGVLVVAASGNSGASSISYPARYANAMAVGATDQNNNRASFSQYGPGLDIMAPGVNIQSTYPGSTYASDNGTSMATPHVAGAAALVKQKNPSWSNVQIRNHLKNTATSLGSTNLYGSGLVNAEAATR

Compound | relative strength as protease inhibitor and/or stabilizer (rank order V1, V2, V3, V4, V5)
O=C(O)c1ccc(C(=O)c2ccccc2C(=O)O)cc1 [V4, 2-(4-carboxybenzoyl)benzoic acid] | practically just as good as V3
O=C(O)c1cccc(NC(=O)c2ccccc2C(=O)O)c1 [V1, 2-[[(3-carboxyphenyl)amino]carbonyl]benzoic acid] | the strongest
